This is an account of results in patent US7816560B1, “Long chain n-alkyl compounds and oxa-derivatives thereof” (Thomas Jefferson University, priority 1999, dated 2010).

Each structure is given as a SMILES string. Read-outs that look alike come from different tables or passages of the source.

The nature of data set [1]: Toxicity / cell cytotoxicity in MDBK cells. The settings on record: bovine. Format: cell-based.
For data set [2], the system named is HBV. Kind of data set: Secreted HBV DNA by Southern blot hybridization. Format: cell-based, hepatitis B virus. The settings on record: HepG2.2.15 cells, seven days, 20 μg/ml. The method, then:
Secreted DNA analysis: Secreted DNA analysis was performed by the method of Wei et al. (J. Virol. 70:6455-6458, 1996). […] Media containing drug was changed every two days and on the 7th day the media taken and the virus concentrated by pelleting through 20% sucrose for 16 hours (SW 41 rotor, 36,000 RPM). Virus was resuspended in 400 μL of 10 mM TRIS (pH 7.9), 10 mM EDTA (pH 8.0), and 10 mM MgCl2. Samples were split into two 200 μL aliquots and labeled as +Dnase and −Dnase. To both tubes, 15 μl of proteinase K was added to a final concentration of 750 μg/ml for one hour at 37° C. After one hour, 10 pl Dnase was added to the tube labeled +Dnase (final concentration is 50 units/ml) and incubated at 37° C. for one hour. SDS was added to a final concentration of 1% and additional proteinase K added to a final concentration of 500 μg/ml and the reaction allowed to proceed at 37° C. for 3-4 hours. DNA was than purified by phenol/chloroform extraction. DNA was separated on 1% agarose gel and probed with ^32P labeled probes as described (Mehta et al., Proc. Natl. Acad. Sci. USA 94:1822-1827, 1997).
HepG2.2.15 cells were grown for seven days in the absence or presence of NB-DNJ (1000 μg/ml), NN-DNJ (20 μg/ml) or NN-DGJ (20 μg/ml), respectively. After seven days, virus was isolated from these cell cultures, concentrated, and purified. Secreted HBV DNA was detected by Southern blot hybridization. HBV viral DNA from untreated cells was readily detected. The secretion of HBV DNA from treated HepG2.2.15 was also detected.

For another data set, the system named is BVDV. Kind of data set: BVDV plaque reduction and yield assays in MDBK cells. It is filed as cell-based, bovine viral diarrhea virus.
A further data set has as its system Hepatitis B virus (HBV). In words: Secretion of enveloped HBV from Hep G2.2.15 cells, antigen capture/PCR assay. It is filed as cell-based. The settings on record: for IC50: Hepatitis B virus. The source says:
Pairs of wells were used for each concentration point.
^2IC 50: The concentration of compound that prevented the secretion of 50% of the amount of HBV detected in the medium from wells containing untreated cultures.

For data set [3], the system named is HBV. In words: Intracellular HBV DNA in HepG2.2.15 cells by Southern blot. Format: cell-based, hepatitis B virus. The settings on record: seven days. As to the method: Intracellular DNA analysis: Hep G2.2.15 cells were either left untreated or treated with the compounds listed above for seven days and the total DNA extracted as described (Mehta et al., ibid). DNA (20 μg) was digested with HindIII, resolved through a 1.2% agarose gel and transferred to nylon membranes. Membranes were then hybridized with a ^32P labeled probe containing the total HBV genome and developed as described (Lu et al., Proc. Natl. Acad. Sci. USA 94:2380-2385, 1997). The relaxed circular (rc), linear (lin), and closed circular (CCC) DNA were confirmed by enzymatic digestion.
An infected cell contains several forms of HBV DNA which represent different stages in the HBV life cycle. For example, covalently closed circular DNA (CCC DNA) is the nuclear form of the DNA and is thought to be the viral template (Heermann & Gerlich, 1992). In contrast, the relaxed circular DNA (re DNA) and linear forms (lin) are associated with the viral particle and their presence is an indicator of encapsidation of the viral pre-genomic RNA and the subsequent reverse transcription into progeny DNA (Ganem, Curr. Top. Microbiol. Immunol. 168:61-83, 1991). […] The amount of virus associated with the cells was detected seven days later by Southern blot analysis. The locations of the HBV relaxed circular DNA (rcDNA), covalently close circular (CCC) DNA, and single stranded (SS) DNA was identified by relative mobility.

The test system of a further data set is Hep G2.2.15 cells. Kind of data set: MTT toxicity in Hep G2.2.15 cultures. The settings on record: Hep G2.2.15 cultures at conclusion of experiment (10 days).
Another data set relates to α-glucosidase. In words: Inhibition of α-glucosidase. It is filed as biochemical. The settings on record: Yes/No. An excerpt:
The inhibitory activity (IC50) and the cell cytotoxicity (IC50) of various compounds, as well as their effect on α-glucosidase and ceramide glucosyl transferase, are shown in Table 2.

In the next data set the target is T1, HBV polymerase (Hepatitis B virus genotype D subtype ayw, UniProt P03156).
T1 construct: HBV virions were purified from the culture medium of untreated cells by ultracentrifugation and the polymerase activity (in the presence of the indicated compounds) tested; expressed in transfected cells; host or cells: Hep G2.2.15 (HepG2 stably transfected with a dimer of the HBV genome); virions pelleted from the culture medium
T1 sequence (P03156 whole entry): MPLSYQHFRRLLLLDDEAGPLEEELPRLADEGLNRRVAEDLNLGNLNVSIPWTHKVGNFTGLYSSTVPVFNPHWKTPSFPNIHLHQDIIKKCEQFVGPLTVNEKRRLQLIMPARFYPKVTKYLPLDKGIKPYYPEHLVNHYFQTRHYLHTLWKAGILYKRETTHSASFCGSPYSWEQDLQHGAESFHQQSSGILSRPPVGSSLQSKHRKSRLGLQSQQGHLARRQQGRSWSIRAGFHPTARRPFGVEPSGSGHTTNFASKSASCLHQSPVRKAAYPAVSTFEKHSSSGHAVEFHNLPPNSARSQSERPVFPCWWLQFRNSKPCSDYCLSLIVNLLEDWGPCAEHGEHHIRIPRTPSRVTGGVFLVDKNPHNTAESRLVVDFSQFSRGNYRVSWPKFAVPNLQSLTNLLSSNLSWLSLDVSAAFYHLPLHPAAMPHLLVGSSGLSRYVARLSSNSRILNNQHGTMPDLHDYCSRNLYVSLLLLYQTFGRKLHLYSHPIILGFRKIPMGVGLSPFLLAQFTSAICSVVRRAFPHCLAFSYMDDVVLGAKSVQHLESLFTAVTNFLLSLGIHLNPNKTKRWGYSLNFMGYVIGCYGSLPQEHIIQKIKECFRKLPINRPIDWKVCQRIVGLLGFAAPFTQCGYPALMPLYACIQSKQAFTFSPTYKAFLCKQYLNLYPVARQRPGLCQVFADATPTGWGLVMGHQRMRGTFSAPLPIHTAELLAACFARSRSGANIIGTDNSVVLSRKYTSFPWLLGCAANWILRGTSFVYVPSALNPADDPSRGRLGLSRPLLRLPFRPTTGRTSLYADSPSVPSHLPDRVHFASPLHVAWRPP
In words: Endogenous polymerase assay on purified HBV virions. The settings on record: 69 μM. It is filed as biochemical. The method, then: Endogenous polymerase assay: Media containing HBV from Hep G2.2.15 cells was pelleted through 20% sucrose (SW 28 Rotor, 24,000 RPM) for 16 hours and the pellet re-suspended in 50 μl of a mixture containing 50 mM Tris (pH 7.5), 75 mM NH4Cl, 1 mM EDTA, 25 mM MgCl2, 0.1% β-mercaptoethanol, 0.5% NP-40, 0.4 mM each of dATP, dGTP, dTTP and 10 μl of P^32 labeled dCTP. […] DNA was purified by a phenol/chloroform extraction and ethanol precipitation.
HBV DNA replication involves the conversion of a pregenomic RNA (pgRNA) into DNA by the action of the HBV polymerase. Current nucleoside analogue drugs (e.g., 3TC) for treating HBV target this reaction, preventing the formation and secretion of HBV viral DNA. Because the iminosugar N-nonyl-DGJ prevents the formation of HBV rc DNA, it was important to determine whether N-nonyl-DGJ was acting by inhibiting the elongation step of the polymerase. HBV virions from normal and drug treated Hep G2.2.15 cells were purified and the endogenous polymerase activity was measured. HBV virions were purified from the culture medium of untreated cells by ultracentrifugation and the polymerase activity (in the presence of the indicated compounds) tested by the method of Ganem et al. (1998). Briefly, partially purified viral particles were incubated overnight with the indicated concentrations of compound and 10 μCi of ^32P-dCTP. Viral DNA was purified by phenol extraction and ethanol precipitation and resolved on a 1.2% agarose gel. The gel was dried and viral DNA bands detected using a Phospholmager.

For `CCCCCCCCCN1C[C@H](O)[C@@H](O)[C@@H](O)[C@H]1CO` [N-nonyl DGJ, N-nonyl-1,5-dideoxy-1,5-imino-D-galactitol], the midpoint of cytotoxicity in data set [1], the CC50, lay at 250 µM. For the same compound, in the data set with HBV [2], the “Decrease of secreted virus DNA” value was “about 14 fold”. In addition, the IC50 with BVDV (Bovine viral diarrhea virus isolates and strains, MDBK, read-out: Anti-viral effect on BVDV in MDBK cells IC50) was 5 µM; in the data set on Hepatitis B virus (HBV) (HepG2.2.15, 216 h, Hep G2.2.15 cells, nine days of incubation, read-out: IC 50, secretion of HBV), 1.5 to 5 µM; in the data set with Hepatitis B virus (HBV) (HepG2.2.15, read-out: IC50, HBV secretion), ~0.5 µM. For the same compound, in the data set with BVDV (Yes/No), the “Anti-viral effect on BVDV in MDBK cells” value is “Yes”. Also, in the data set with Hepatitis B virus (HBV) (Hep G2.2.15 cells, compared with untreated controls, nine days), the “Reduction of enveloped HBV in the culture medium” value was “at least as effective as NN-DNJ in reducing the HBV secretion”. The “Reduction of intracellular HBV DNA” value in the data set on HBV [3] (2 or 20 μg/ml) is listed as “greater than 25 fold”. Moreover, the “Effect on intracellular HBV DNA” value in the data set on HBV [3] (3TC 1 μg/ml, NB-DNJ 1000 μg/ml, NN-DNJ and NN-DGJ 2 or 20 μg/ml) is recorded as “almost complete disappearance of intracellular HBV DNA”. Moreover, the “TOX 50 (MTT activity reduced to 50%)” value in the data set with Hep G2.2.15 cells is >200 µM. Besides, in the data set on α-glucosidase, the “Inhibitor of α glucosidase” value is reported as “No”. Besides, the “Effect on HBV polymerase activity” value on HBV polymerase is recorded as “no effect on polymerase activity”.

Broadly, the CC50 is the concentration at which the toxic effect on the cells reaches its halfway point. Low values mean harm at low concentration, high ones better tolerance by the cells.
